The values below come from patent US11498929B2, “Chromenopyrimidine derivatives as phosphatidylinsitol phosphate kinase inhibitors” (Hibercell, Inc., priority 2019, dated 2022).

Test [1] concerns MOLM-16. Briefly: MOLM-16 EC50 assay. To be noted: MOLM16. It is filed as cell-based.
Test [2] deals with T1, PIP4K2 B (GST-tagged PIP4KtypeIIB) (Homo sapiens, UniProt P78356).
T1 construct: GST; made in house; host or cells: E. coli
T1 sequence (P78356 1-416): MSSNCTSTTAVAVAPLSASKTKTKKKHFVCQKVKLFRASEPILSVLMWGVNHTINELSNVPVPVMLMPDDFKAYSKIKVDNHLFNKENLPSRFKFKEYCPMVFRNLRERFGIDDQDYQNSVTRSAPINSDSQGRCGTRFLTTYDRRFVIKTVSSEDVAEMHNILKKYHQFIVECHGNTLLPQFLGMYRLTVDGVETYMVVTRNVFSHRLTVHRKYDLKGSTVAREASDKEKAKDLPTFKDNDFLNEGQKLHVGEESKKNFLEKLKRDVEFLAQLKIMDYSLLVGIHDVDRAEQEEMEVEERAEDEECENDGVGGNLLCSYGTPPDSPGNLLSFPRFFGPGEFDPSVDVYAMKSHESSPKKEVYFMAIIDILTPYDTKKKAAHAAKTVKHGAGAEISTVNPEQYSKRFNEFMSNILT
As to the kind of experiment: Kinase Assay - PIP4K2 B (inhibition of PIP4K2 B kinase assay). Type of test: biochemical. To be noted: compounds listed under IC50 bin headings. The source says:
GST tagged PIP4KtypeIIA and B enzymes were overexpressed in E. Coli and purified to >80% homogeneity. Phosphatidyl inositol-5-phosphate (PI5P, Cat. #850152, Avanti Polar Lipids Inc.) was used as the lipid substrate and phosphatidyl ethanolamine (DOPE 18:1, Cat. #850725, Avanti Polar Lipids Inc.) was used as the carrier lipid for assays. Ultrapure ATP and GTP was purchased from Bellbrooke Labs. ADP Glo reagents were obtained from Promega. Transcreener FI reagent was obtained from Bellbrooke labs.
GST-tagged PIP4KtypeIIB (3.4 uL, 2.77 mg/mL) was diluted to 5 mL using HNE buffer to yield 5× enzyme stock (25 nM)
Lipid Preparation: In a 10 mL pyrex glass vial, 1 ug of PI5P and 1 ug of DOPE were suspended in 2.5 mL of HEPES buffer mix and 2.5 mL of H:E buffer. The contents were mixed and sonicated for 3 min to yield a translucent lipid stock.
Compound Preparation: Compounds were stored as 5 mM stocks in neat DMSO as room temperature in glass vials. 5 mM stocks were diluted to 2 mM and then serially diluted (3×) in neat DMSO in 96 well polypropylene plates. From the serially diluted stocks, 3 uL was delivered into 250 uL of 25% DMSO (in water) to generate 5× compound stocks. Typically, the highest compound conc. was 24 uM.
The assay volume was kept at 25 uL. To each well of the reaction plate, 10 uL of lipid stock (1:1 ratio PI5P:DOPE) was delivered. This was followed by the addition of 5 uL of compound in 25% DMSO. Then, to each well, 5 uL of 25 nM (5×) typeIIB enzyme was delivered. The contents were mixed well and incubated for 1 h at 27 C. After 1 h, reaction was initiated by adding 5 uL of 500 uM GTP and the contents were mixed well with a multi-channel pipetteman. The final concentration of the reagents are as follows: 50 mM HEPES, pH 7.3, 10 mM MgCl2, 20 mM NaCl, 0.01% v/v triton-X100, 5% DMSO, 100 uM GTP, 80 uM (2 ug) PI5P, 2 ug DOPE, and 5 nM PIP4KIIB Typically, the highest conc. of compounds was 4.8 uM and the lowest conc. was 0.
After 2 h, the reaction was quenched by adding 25 uL of transcreener FI reagent. The contents were incubated at RT for 1 h and the Fluorescence (Ex:584 Em: 623) was read using Molecular Devices Paradigm plate reader. […] The blanks were averaged and subtracted from all other wells. Using a calibration curve, RFU was converted to uM GDP (product). IC50 was calculated by plotting the residual activity (expressed as % No inhibitor control) vs. log [Inh. conc.]

Test [3] concerns the target T2, PIP4K2A (Homo sapiens, UniProt P48426).
T2 construct: GST; made in house; host or cells: E. coli
T2 sequence (P48426 1-406): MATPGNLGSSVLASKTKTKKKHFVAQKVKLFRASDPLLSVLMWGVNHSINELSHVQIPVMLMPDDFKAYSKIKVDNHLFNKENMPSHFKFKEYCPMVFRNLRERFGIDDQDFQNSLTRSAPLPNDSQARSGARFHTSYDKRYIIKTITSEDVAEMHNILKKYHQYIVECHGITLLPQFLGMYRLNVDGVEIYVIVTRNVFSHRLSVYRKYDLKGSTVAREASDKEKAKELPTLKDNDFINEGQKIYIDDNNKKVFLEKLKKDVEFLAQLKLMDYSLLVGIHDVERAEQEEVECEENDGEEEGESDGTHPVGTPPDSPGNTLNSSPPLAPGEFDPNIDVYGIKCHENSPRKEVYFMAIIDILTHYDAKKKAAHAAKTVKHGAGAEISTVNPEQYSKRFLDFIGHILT
Briefly: Kinase Assay - PIP4K2 A (inhibition of PIP4K2 A kinase assay). It is filed as biochemical. To be noted: compounds listed under IC50 bin headings. The procedure:
Dilution series of the compounds were prepared in DMSO at 100 times the final assay concentration (n1=n0/3 in 10 points). The compounds were further diluted to three times the assay concentration in assay buffer (20 mM MOPS pH 7.2, 25 mM magnesium chloride, 0.005% Tween 20). 6 μL of the diluted compounds were added to a 384 well assay plate followed by 9 μL of a mix consisting of 4 nM PIP4K2A (full length protein, SignalChem) and 100 μM PI(5)P diC8 (Tebu-Bio). Enzyme and compounds were pre-incubated at room temperature for 15 minutes.
Then 3 μL of a solution containing 60 μM ATP (Promega) in assay buffer was added to the wells containing compound and enzyme and mixing was performed by pipetting several times. The reaction was incubated at room temperature for 1 h. Then 18 μL of ADP-Glo™ Reagent (Promega) was added to stop the kinase reaction and deplete the unconsumed ATP, mixing was performed by pipetting several times. The plate was incubated at room temperature for 40 minutes before addition of 36 μL of Kinase Detection Reagent (Promega) to convert ADP to ATP and introduce luciferase and luciferin to detect ATP. The reaction was incubated at room temperature for 40 minutes before the luminescence was measured in a in a Victor 3V 1420 multilabel counter (Perkin Elmer).
Percent inhibition of the compounds as compared to dimethyl sulfoxide treated control samples was calculated. Compound concentration versus percent inhibition were fitted to generate IC50 values. […]

Usually EC50 stands for the concentration that produces a half-maximal response. As usually defined, the IC50 is the concentration that gives 50% inhibition. Lower therefore signals higher potency.

SMILES strings stand for the structures.

For the compound `CC1(C)Oc2cc(N3CCCC3=O)ccc2-c2cnc(Nc3cnc4c(c3)N(C(=O)NC3CC3)CCO4)nc21` [Compound 23, N-cyclopropyl-7-{[5,5-dimethyl-8-(2-oxopyrrolidin-1-yl)-5H-chromeno[3,4-d]pyrimidin-3-yl]amino}-1H,2H,3H-pyrido[2,3-b][1,4]oxazine-1-carboxamide], the EC50 in test [1] was 10 to 100 nM. In addition, the IC50 in test [2] was in the range of 10 to 100 nM; in test [3], 1 to 10 nM.
`CN(C)C1CCN(c2cncc(Nc3ncc4c(n3)C(C)(C)Oc3cc(N5CCCC5=O)ccc3-4)c2)CC1` [Compound 25, 1-[3-({5-[4-(dimethylamino)piperidin-1-yl]pyridin-3-yl}amino)-5,5-dimethyl-5H-chromeno[3,4-d]pyrimidin-8-yl]pyrrolidin-2-one]: the EC50 in test [1] is 10 to 100 nM. Moreover, the IC50 in test [2] was 10 to 100 nM; in test [3] it was 1 to 10 nM.
In the case of `CN1CCOc2ncc(Nc3ncc4c(n3)C(C)(C)Oc3cc(N5C(=O)CCC56CC6)ccc3-4)cc21` [Compound 26, 4-[5,5-dimethyl-3-({1-methyl-1H,2H,3H-pyrido[2,3-b][1,4]oxazin-7-yl}amino)-5H-chromeno[3,4-d]pyrimidin-8-yl]-4-azaspiro[2.4]heptan-5-one], in test [1], the EC50 lay in the range of 100 to 1000 nM. Moreover, the IC50 in test [2] and in test [3] was 1 to 10 nM throughout.
`CC(=O)OC(C)(C)C(=O)N1CCOc2ncc(Nc3ncc4c(n3)C(C)(C)Oc3cc(-c5nocc5C)ccc3-4)cc21` [Compound 29, 1-(7-{[5,5-dimethyl-8-(4-methyl-1,2-oxazol-3-yl)-5H-chromeno[3,4-d]pyrimidin-3-yl]amino}-1H,2H,3H-pyrido[2,3-b][1,4]oxazin-1-yl)-2-methyl-1-oxopropan-2-yl acetate] had an EC50 in test [1] above 1000 nM. The IC50 was 10 to 100 nM in test [2] and 1 to 10 nM in test [3].
On to `CC1(C)Oc2cc(N3CCCC3=O)ccc2-c2cnc(Nc3cncc(CNCCS(C)(=O)=O)c3)nc21` [Compound 31, 1-{3-[(5-{[(2-methanesulfonylethyl)amino]methyl}pyridin-3-yl)amino]-5,5-dimethyl-5H-chromeno[3,4-d]pyrimidin-8-yl}pyrrolidin-2-one], for which the EC50 in test [1] fell in the range of 10 to 100 nM. Moreover, the IC50 in test [2] and in test [3] was 10 to 100 nM in each case.
`CCN(CC)CCN(C)c1cncc(Nc2ncc3c(n2)C(C)(C)Oc2cc(N4CCCC4=O)ccc2-3)c1` [Compound 32, 1-{3-[(5-{[2-(diethylamino)ethyl](methyl)amino}pyridin-3-yl)amino]-5,5-dimethyl-5H-chromeno[3,4-d]pyrimidin-8-yl}pyrrolidin-2-one] returned an EC50 in test [1] of 10 to 100 nM. The figures for the IC50 in test [2] and in test [3] were 100 to 1000 nM and 10 to 100 nM, respectively.
Regarding `CN(C)CCOc1cncc(Nc2ncc3c(n2)C(C)(C)Oc2cc(N4CCCC4=O)ccc2-3)c1` [Compound 33, 1-[3-({5-[2-(dimethylamino)ethoxy]pyridin-3-yl}amino)-5,5-dimethyl-5H-chromeno[3,4-d]pyrimidin-8-yl]pyrrolidin-2-one], the EC50 in test [1] was in the range of 10 to 100 nM. The IC50 in test [2] lay in the range of 100 to 1000 nM; in test [3], 10 to 100 nM.
For `CN1CCN(CC(=O)N(C)c2cncc(Nc3ncc4c(n3)C(C)(C)Oc3cc(N5CCCC5=O)ccc3-4)c2)CC1` [Compound 35, N-(5-{[5,5-dimethyl-8-(2-oxopyrrolidin-1-yl)-5H-chromeno[3,4-d]pyrimidin-3-yl]amino}pyridin-3-yl)-N-methyl-2-(4-methylpiperazin-1-yl)acetamide], in test [1], the EC50 fell in the range of 100 to 1000 nM. The IC50 is above 1000 nM in test [2] and 100 to 1000 nM in test [3].
`CCN(CC)CCN1CCOc2ncc(Nc3ncc4c(n3)C(C)(C)Oc3cc(N5CCCC5=O)ccc3-4)cc21` [Compound 36, 1-[3-({1-[2-(diethylamino)ethyl]-1H,2H,3H-pyrido[2,3-b][1,4]oxazin-7-yl}amino)-5,5-dimethyl-5H-chromeno[3,4-d]pyrimidin-8-yl]pyrrolidin-2-one] returned an EC50 in test [1] of 10 to 100 nM. Moreover, the IC50 in test [2] was above 1000 nM; in test [3], 100 to 1000 nM.
